In the assay the target is HPK1 (Homo sapiens (Human), UniProt Q92918). The assay is described as follows: HPK1 Kinase Binding Assay. Conditions: LanthaScreen tracer 222 binding, active HPK1, one hour incubation at 25° C. On the procedure: A stock solution of 1 mM test compound was prepared in DMSO. The compound plate was prepared by 3-fold and 11-point serial dilutions. 0.1 μL of the compound in DMSO was transferred from the compound plate to the white 384 well polystyrene plates. The assay buffer contained 50 mM HEPES, pH 7.5, 0.01% Tween-20, 5 mM MgCl2, 0.01% BSA, and 5 mM DTT. 5 μl of 4 nM active HPK1 (SignalChem M23-11G) prepared in the buffer was added to the plate. The enzyme concentration given was based on the given stock concentration reported by the vender. 5 μl of 18 nM tracer 222 (ThermoFisher PV6121) and 4 nM LanthaScreen Eu-Anti GST antibody (ThermoFisher PV5595) were added. After one hour incubation at 25° C., the plates were read on a PHERAstar FS plate reader (BMG Labtech). Ki values were determined.
Chain of HPK1 (Q92918 1-346): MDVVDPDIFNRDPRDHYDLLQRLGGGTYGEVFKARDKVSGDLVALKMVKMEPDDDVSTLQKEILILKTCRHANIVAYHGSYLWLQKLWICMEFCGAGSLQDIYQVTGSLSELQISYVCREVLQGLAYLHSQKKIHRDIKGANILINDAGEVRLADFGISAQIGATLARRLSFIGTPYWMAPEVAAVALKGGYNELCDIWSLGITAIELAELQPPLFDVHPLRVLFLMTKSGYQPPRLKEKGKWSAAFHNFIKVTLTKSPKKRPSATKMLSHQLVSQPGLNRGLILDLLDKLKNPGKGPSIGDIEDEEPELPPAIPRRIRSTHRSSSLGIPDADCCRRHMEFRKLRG
On the technique in general: In TR-FRET formats the signal depends on donor and acceptor labels being close together.

These results are taken from patent US11014929B2, “Pyrazolopyrimidine compounds and uses thereof” (Incyte Corporation, priority 2016, dated 2021).

By Ki is commonly meant a measure of affinity in units of concentration, obtained from inhibition or displacement.

Bounds are passed on as bounds.

`CNCc1cc(F)c(-c2ncc3[nH]nc(-c4cnn(C)c4)c3n2)c(OC)c1` [Example 86, 1-(3-Fluoro-5-methoxy-4-(3-(1-methyl-1H-pyrazol-4-yl)-1H-pyrazolo[4,3-d]pyrimidin-5-yl)phenyl)-N-methylmethanamine] returned a Ki of at most 100 nM.
With `CN(C)c1ncc(-c2n[nH]c3cnc(-c4c(F)cc5c(c4F)CNCC5)nc23)cn1` [Example 93, 5-(5-(6,8-Difluoro-1,2,3,4-tetrahydroisoquinolin-7-yl)-1H-pyrazolo[4,3-d]pyrimidin-3-yl)-N,N-dimethylpyrimidin-2-amine] the figure was at most 100 nM.
With `CNC1CCCc2c1cc(F)c(-c1ncc3[nH]nc(-c4ccc(N5CCOCC5)nc4)c3n1)c2F` (stereo not shown) [Example 116, 5,7-Difluoro-N-methyl-6-(3-(6-morpholinopyridin-3-yl)-1H-pyrazolo[4,3-d]pyrimidin-5-yl)-1,2,3,4-tetrahydronaphthalen-1-amine] the figure was at most 100 nM; with `COc1cccc(F)c1-c1ncc2[nH]nc(-c3ccc(C4(N5CCOCC5)CC4)cc3)c2n1` [Example 33, 4-(1-(4-(5-(2-Fluoro-6-methoxyphenyl)-1H-pyrazolo[4,3-d]pyrimidin-3-yl)phenyl)cyclopropyl)morpholine], 100 to 500 nM; with `CN1CCN(c2ccc(-c3n[nH]c4cnc(-c5c(F)ccc6c5CCCC6N)nc34)cc2)CC1` (stereo not shown) [Example 121, 6-Fluoro-5-(3-(4-(4-methylpiperazin-1-yl)phenyl)-1H-pyrazolo[4,3-d]pyrimidin-5-yl)-1,2,3,4-tetrahydronaphthalen-1-amine], at most 100 nM.
In turn, `CNCc1cc(F)c(-c2ncc3[nH]nc(-c4ccnc(N5CCOCC5)c4F)c3n2)c(F)c1` [Example 69, 1-(3,5-Difluoro-4-(3-(3-fluoro-2-morpholinopyridin-4-yl)-1H-pyrazolo[4,3-d]pyrimidin-5-yl)phenyl)-N-methylmethanamine] gave a Ki of at most 100 nM.
Then `Cc1cccc(F)c1-c1ncc2[nH]nc(-c3ccc(N4CCNCC4)cc3)c2n1` [Example 59, 5-(2-Fluoro-6-methylphenyl)-3-(4-(piperazin-1-yl)phenyl)-1H-pyrazolo[4,3-d]pyrimidine], with at most 100 nM; and `CCN1CCN(c2ccc(-c3n[nH]c4cnc(-c5c(F)cccc5OC)nc34)cc2)CC1` [Example 37, 3-(4-(4-Ethylpiperazin-1-yl)phenyl)-5-(2-fluoro-6-methoxyphenyl)-1H-pyrazolo[4,3-d]pyrimidine], with at most 100 nM; and `COc1cccc(F)c1-c1ncc2[nH]nc(-c3ccc(C(F)(F)F)cc3)c2n1` [Example 18, 5-(2-Fluoro-6-methoxyphenyl)-3-(4-(trifluoromethyl)phenyl)-1H-pyrazolo[4,3-d]pyrimidine], with 100 to 500 nM.
With `Cn1cc(-c2n[nH]c3cnc(-c4c(F)cc(NC(=O)CN5CCCC5)cc4F)nc23)cn1` [Example 82, N-(3,5-Difluoro-4-(3-(1-methyl-1H-pyrazol-4-yl)-1H-pyrazolo[4,3-d]pyrimidin-5-yl)phenyl)-2-(pyrrolidin-1-yl)acetamide] the figure was at most 100 nM; with `COc1cccc(F)c1-c1ncc2[nH]nc(-c3ccc(C(=O)N(C)C)cc3)c2n1` [Example 22, 4-(5-(2-Fluoro-6-methoxyphenyl)-1H-pyrazolo[4,3-d]pyrimidin-3-yl)-N,N-dimethylbenzamide], 100 to 500 nM.
With `CNC(C)c1cc(F)c(-c2ncc3[nH]nc(-c4cnn(C)c4)c3n2)c(F)c1` (stereo not shown) [Example 85, 1-(3,5-Difluoro-4-(3-(1-methyl-1H-pyrazol-4-yl)-1H-pyrazolo[4,3-d]pyrimidin-5-yl)phenyl)-N-methylethanamine] the figure was at most 100 nM; with `Cc1cc(C2CCCN2)cc(F)c1-c1ncc2[nH]nc(-c3ccc(N4CCN(C)CC4)cc3)c2n1` (stereo not shown) [Example 80, 5-(2-Fluoro-6-methyl-4-(pyrrolidin-2-yl)phenyl)-3-(4-(4-methylpiperazin-1-yl)phenyl)-1H-pyrazolo[4,3-d]pyrimidine], at most 100 nM.
Take `CN1CCN(c2ccc(-c3n[nH]c4cnc(-c5ccc6c(c5)C(=O)NC6)nc34)cc2)CC1` [Example 7, 6-(3-(4-(4-Methylpiperazin-1-yl)phenyl)-1H-pyrazolo[4,3-d]pyrimidin-5-yl)isoindolin-1-one]: the Ki is at most 100 nM.
With `COc1cccc(F)c1-c1ncc2[nH]nc(-c3ccc(C4CCOCC4)cc3)c2n1` [Example 43, 5-(2-Fluoro-6-methoxyphenyl)-3-(4-(tetrahydro-2H-pyran-4-yl)phenyl)-1H-pyrazolo[4,3-d]pyrimidine] the figure was at most 100 nM; with `COc1cccc(F)c1-c1ncc2[nH]nc(-c3cc(C)n[nH]3)c2n1` [Example 88, 5-(2-Fluoro-6-methoxyphenyl)-3-(3-methyl-1H-pyrazol-5-yl)-1H-pyrazolo[4,3-d]pyrimidine], at most 100 nM; with `CCN1CCN(c2ccc(-c3n[nH]c4cnc(-c5c(C)cc(C6CCCCN6)cc5F)nc34)cc2)CC1` (stereo not shown) [Example 125, 3-(4-(4-Ethylpiperazin-1-yl)phenyl)-5-(2-fluoro-6-methyl-4-(piperidin-2-yl)phenyl)-1H-pyrazolo[4,3-d]pyrimidine], at most 100 nM.
With `COc1ccc(-c2n[nH]c3cnc(-c4c(F)cccc4OC)nc23)cc1` [Example 35, 5-(2-Fluoro-6-methoxyphenyl)-3-(4-methoxyphenyl)-1H-pyrazolo[4,3-d]pyrimidine] the figure was at most 100 nM.
For `COc1ccc(F)c(F)c1-c1ncc2[nH]nc(-c3ccc(N4CCN(C)CC4)cc3)c2n1` [Example 45, 5-(2,3-Difluoro-6-methoxyphenyl)-3-(4-(4-methylpiperazin-1-yl)phenyl)-1H-pyrazolo[4,3-d]pyrimidine], the inhibitory constant (Ki) is at most 100 nM.
`COc1cccc(F)c1-c1ncc2[nH]nc(-c3cccc(N(C)C)c3)c2n1` [Example 30, 3-(5-(2-Fluoro-6-methoxyphenyl)-1H-pyrazolo[4,3-d]pyrimidin-3-yl)-N,N-dimethylaniline] displayed a Ki of at most 100 nM.
With `COc1cccc(F)c1-c1ncc2[nH]nc(-c3ccc(CN4CCN(C)CC4)cc3)c2n1` [Example 23, 5-(2-Fluoro-6-methoxyphenyl)-3-(4-((4-methylpiperazin-1-yl)methyl)phenyl)-1H-pyrazolo[4,3-d]pyrimidine] the figure was at most 100 nM.
Then `Cc1cncc(-c2ncc3[nH]nc(-c4ccc(N5CCN(C)CC5)cc4)c3n2)c1` [Example 6, 3-(4-(4-Methylpiperazin-1-yl)phenyl)-5-(5-methylpyridin-3-yl)-1H-pyrazolo[4,3-d]pyrimidine], with at most 100 nM.
With `COc1ccc(-c2ncc3[nH]nc(-c4ccc(N5CCN(C)CC5)cc4)c3n2)c2c1CNCC2` [Example 100, 8-Methoxy-5-(3-(4-(4-methylpiperazin-1-yl)phenyl)-1H-pyrazolo[4,3-d]pyrimidin-5-yl)-1,2,3,4-tetrahydroisoquinoline] the figure was at most 100 nM; with `CN1CCN(c2ccc(-c3n[nH]c4cnc(-c5ccc6cccnc6c5F)nc34)cc2)CC1` [Example 101, 8-Fluoro-7-(3-(4-(4-methylpiperazin-1-yl)phenyl)-1H-pyrazolo[4,3-d]pyrimidin-5-yl)quinoline], at most 100 nM.
Take `COc1cccc(F)c1-c1ncc2[nH]nc(-c3cccc(N4CCOCC4)c3)c2n1` [Example 29, 4-(3-(5-(2-Fluoro-6-methoxyphenyl)-1H-pyrazolo[4,3-d]pyrimidin-3-yl)phenyl)morpholine]: the Ki is at most 100 nM.
